Measured values reported in patent US8338465B2, “Cyclic carboxylic acid rhodanine derivatives for the treatment and prevention of tuberculosis” (priority 2006, dated 2012).
Read-outs that look alike come from different tables or passages of the source.

Molecular target: T1, dihydrolipoamide acyltransferase (DlaT) (Mycobacterium tuberculosis, UniProt P9WIS7)
T1 sequence (P9WIS7 1-553): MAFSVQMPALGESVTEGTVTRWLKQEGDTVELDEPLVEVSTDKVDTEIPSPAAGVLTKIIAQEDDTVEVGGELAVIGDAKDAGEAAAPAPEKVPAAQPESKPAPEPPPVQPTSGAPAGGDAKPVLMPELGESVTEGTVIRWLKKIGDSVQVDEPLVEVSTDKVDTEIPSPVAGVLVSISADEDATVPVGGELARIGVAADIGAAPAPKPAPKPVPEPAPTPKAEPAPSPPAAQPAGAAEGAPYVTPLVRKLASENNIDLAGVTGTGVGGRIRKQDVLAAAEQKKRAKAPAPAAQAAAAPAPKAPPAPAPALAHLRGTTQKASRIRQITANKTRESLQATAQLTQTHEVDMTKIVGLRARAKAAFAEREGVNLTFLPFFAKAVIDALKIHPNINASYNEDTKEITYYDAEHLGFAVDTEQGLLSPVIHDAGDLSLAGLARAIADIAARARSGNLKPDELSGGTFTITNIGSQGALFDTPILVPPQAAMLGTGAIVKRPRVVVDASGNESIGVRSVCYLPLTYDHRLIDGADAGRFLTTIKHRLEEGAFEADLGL
Assay: DlaT inhibition (Dlat IC50); DTNB peroxidase assay with Lpd, DlaT and AhpD
Assay type: biochemical

[1] = Table 1, Compounds A1 to A294, read-out: Dlat IC50 category

**Q.** How did the IC50 (Dlat IC50 category) turn out when `O=C(O)c1ccccc1NN1C(=O)C(=Cc2ccc(-c3cccc(CO)c3)o2)SC1=S` [Compound D44, 2-{5-[1-[5-(3-hydroxymethyl-phenyl)-furan-2-yl]-methylidene]-4-oxo-2-thioxo-thiazolidin-3-ylamino}-benzoic acid] was run?
**A.** Its IC50 is < 10 µM.

**Q.** `CCc1ccc(-c2ccc(C=C3SC(=S)N(C4CCCC(C(=O)O)C4)C3=O)o2)cc1` (stereo not drawn) [Compound C36, 3-{5-[1-[5-(4-ethyl-phenyl)-furan-2-yl]-methylidene]-4-oxo-2-thioxo-thiazolidin-3-yl}-cyclohexanecarboxylic acid] was tested. Which IC50 (Dlat IC50 category) did it give?
**A.** Its IC50 is < 10 µM.

**Q.** With `O=C(O)c1cccc(N2C(=O)C(=Cc3nc(-c4ccccc4)cs3)SC2=S)c1` [Compound A251] as the molecule, how does the IC50 [1] read?
**A.** Its IC50 is 11 to 40 µM.

**Q.** `O=C(O)c1cccc(N2C(=O)C(=Cc3ccc(-c4ccc(C5CCCCC5)cc4)o3)SC2=S)c1` [Compound A56] was tested. Which IC50 [1] did it give?
**A.** The IC50 was < 10 µM.

**Q.** How did the IC50 [1] turn out when `O=C(O)CCc1cccc(N2C(=O)C(=Cc3ccc(-c4ccccc4Cl)o3)SC2=S)c1` [Compound A118] was run?
**A.** Its IC50 is < 10 µM.

**Q.** How did the IC50 [1] turn out when `O=C(O)c1cc(N2C(=O)C(=Cc3ccc(-c4ccc(Cl)cc4)o3)SC2=S)cc([N+](=O)[O-])c1` [Compound A90] was run?
**A.** Its IC50 is < 10 µM.

**Q.** With `CCCc1ccc(-c2ccc(C=C3SC(=S)N(c4cc(C(=O)O)ccc4F)C3=O)o2)cc1` [Compound A270] as the molecule, how does the IC50 [1] read?
**A.** The IC50 was < 10 µM.

**Q.** With `O=C(O)c1cccc(CCN2C(=O)C(=Cc3ccc(-c4ccccc4Cl)o3)SC2=S)c1` [Compound G1] as the molecule, how does the IC50 (Dlat IC50 category, Table 7, Compounds G1 to G4) read?
**A.** Its IC50 is < 10 µM.

**Q.** For `Cc1c(C(=O)O)cccc1N1C(=O)C(=Cc2ccc(-c3ccc(Cl)c(Cl)c3)o2)SC1=S` [Compound A111], which IC50 [1] is on record?
**A.** Its IC50 is < 10 µM.

**Q.** Which IC50 (Dlat IC50 category) does the source give for `O=C(O)C(Cc1ccc(O)c(O)c1)N1C(=O)C(=Cc2ccc(-c3ccccc3Cl)o2)SC1=S` (stereo not drawn) [Compound B54] here?
**A.** Its IC50 is 11 to 40 µM.

**Q.** Which IC50 (Dlat IC50 category) does the source give for `O=C(O)C(Cc1ccccc1)N1C(=O)C(=Cc2ccc(-c3ccc(Cc4ccccc4)cc3)o2)SC1=S` (stereo not drawn) [Compound B57] here?
**A.** Its IC50 is < 10 µM.

**Q.** Which IC50 [1] does the source give for `O=C(O)c1ccc(Cl)c(N2C(=O)C(=Cc3ccc(-c4ccc(N5CCOCC5)cc4)o3)SC2=S)c1` [Compound A137] here?
**A.** The IC50 was < 10 µM.

**Q.** With `CSc1ccc(-c2ccc(C=C3SC(=S)N(C4CCCC(C(=O)OCCCCO)C4)C3=O)o2)cc1` (stereo not drawn) [Compound U4, 3-{5-[1-[5-(4-Methylsulfanyl-phenyl)-furan-2-yl]-methylidene]-4-oxo-2-thioxo-thiazolidin-3-yl}-cyclohexanecarboxylic acid 4-hydroxy-butyl ester] as the molecule, how does the IC50 (Dlat IC50 category, Table 21, Prodrugs (Examples U1 to U10)) read?
**A.** The IC50 was 41 to 80 µM.

**Q.** Which IC50 (Dlat IC50 category) does the source give for `O=C(O)c1ccccc1NN1C(=O)C(=Cc2ccc(-c3ccc(C(F)(F)F)cc3)o2)SC1=S` [Compound D39, 2-{4-oxo-2-thioxo-5-[1-[5-(4-trifluoromethyl-phenyl)-furan-2-yl]-methylidene]-thiazolidin-3-ylamino}-benzoic acid] here?
**A.** The IC50 was < 10 µM.

**Q.** How did the IC50 (Dlat IC50 category) turn out when `Cc1ccc(-c2ccc(C=C3SC(=S)N(C4CCCC(C(=O)O)C4)C3=O)o2)c(F)c1` (stereo not drawn) [Compound C12, 3-{5-[1-[5-(2-fluoro-4-methyl-phenyl)-furan-2-yl]-methylidene]-4-oxo-2-thioxo-thiazolidin-3-yl}-cyclohexanecarboxylic acid] was run?
**A.** The IC50 was < 10 µM.

**Q.** For `Cc1ccccc1-c1ccc(C=C2SC(=S)N(C3CCCC(C(=O)O)C3)C2=O)s1` (stereo not drawn) [Compound C31, 3-{4-oxo-2-thioxo-5-[1-(5-o-tolyl-thiophen-2-yl)-methylidene]-thiazolidin-3-yl}-cyclohexanecarboxylic acid], which IC50 (Dlat IC50 category) is on record?
**A.** The IC50 was 11 to 40 µM.

**Q.** How did the IC50 [1] turn out when `O=C(O)c1cc(N2C(=O)C(=Cc3ccc(-c4c(Cl)cccc4Cl)o3)SC2=S)ccc1O` [Compound A42] was run?
**A.** The IC50 was 11 to 40 µM.

**Q.** How did the IC50 [1] turn out when `NS(=O)(=O)c1ccc(N2C(=O)C(=Cc3ccc(-c4cccc(Cl)c4)o3)SC2=S)cc1` [Compound A19] was run?
**A.** Its IC50 is 11 to 40 µM.

**Q.** How did the IC50 (Dlat IC50 category) turn out when `O=C(O)CN1C(=O)C(=Cc2ccc(-c3ccc(C4CCCCC4)cc3)o2)SC1=S` [Compound B73] was run?
**A.** The IC50 was < 10 µM.

**Q.** With `Cc1ccc(-c2ccc(C=C3SC(=S)N(c4cccc(C(=O)O)c4)C3=O)o2)c(C)c1` [Compound A155] as the molecule, how does the IC50 [1] read?
**A.** The IC50 was 11 to 40 µM.

**Q.** Which IC50 [1] does the source give for `O=C(O)c1cccc(N2C(=O)C(=Cc3ccc(-c4ccc([N+](=O)[O-])cc4)o3)SC2=S)c1` [Compound A130] here?
**A.** The IC50 was 11 to 40 µM.
